# From patent publication EP1136503A1, “NOVEL PHYSIOLOGICALLY ACTIVE SUBSTANCE, PROCESS FOR PRODUCING THE SAME AND UTILIZATION THEREOF” (Takeda Chemical Industries, Ltd., priority 1998, dated 2001)
# Where no end group is shown, it is not given here.
# Legend:
# [1] = biological target: rat SENR (sensory epithelium neuropeptide-like receptor) (rat); assay: cell-based or functional assay
# human SENR (human) = assay: cell-based or functional assay
# [2] = Blood pressure of rats under anesthesia; assay type: in vivo, Male Wistar rats; conditions: 10 nmols/kg intravenous, 8 rats, average + standard error
# Description: The activity of the synthetic SENR ligand polypeptides ① and ② (SEQ ID NO:7 and SEQ ID NO:8) in various concentrations, which were synthesized in EXAMPLES 12 and 13, on blood pressure of rats under anesthesia was measured by the following method. Male Wistar rats of 8 to 9 weeks old (purchased from Nippon Crea Co.) were anesthetized with Nembutal injection (Dai-Nippon Pharmaceutical Co., 50 mg/ml sodium pentobarbital, 50 mg/kg i.p.). A catheter (SP-55) for blood pressure measurement connected with a transducer was inserted into the left carotid artery and a catheter (SP-35) for intravenous injection into the left femoral vein. The synthetic ligand was dissolved in physiological saline containing 0.05% BSA, which was cannulated through the left femoral vein in a dose of 1, 10 or 100 nmol/kg. The blood pressure was continuously recorded by means of a polygraph (manufactured by NEC Sanei Co.). […] The hypotensive action was shown by the average blood pressure reduced by administration of SENR ligand to the average blood pressure prior to administration. […]
# rat SENR [3] = assay: GTPγS binding to rat SENR-expression CHO cell membrane fraction; assay type: biochemical; conditions: peptide in various concentrations, 25°C 1 hour
# Description: The [^35S] -guanosine 5'-(γ-thio)triphosphate binding promoting activity of bovine SENR ligand (SEQ ID NO:21) on SENR-expression CHO cell membrane fraction was measured by the following method. First, preparation of membrane fraction is described. To 1 x 10^8 of CHO/SENR cells was added 10 ml of a homogenate buffer (10 mM NaHCO3, 5 mM EDTA, 0.5 mM PMSF, 1 µg/ml pepstatin, 4 µg/ml E64, 20 µg/ml leupeptin), which was homogenized by using Polytron (12,000 rpm, 1 min.). The cell homogenate was subjected to centrifugation (1,000 g, 15 mins.) to give the supernatant. Next, the supernatant was subjected to ultracentrifugation (Beckman type 30 rotor, 30,000 rpm, 1 hour). The resulting precipitate was used as a rat SENR-expression CHO cell membrane.
# The GTPγS binding activity was measured as follows. The rat SENR-expression CHO cell membrane was diluted with a buffer for membrane dilution (50 mM Tris-hydrochloride buffer (pH 7.4), 5 mM MgCl2, 150 mM NaCl, 1 µM GDP) to prepare a cell membrane fraction solution for assay having a protein concentration of 30 µg/ml. […] After washing twice with 1.5 ml of a buffer for filter washing (50 mM Tris-hydrochloride buffer (pH 7.4), 5 mM MgCl2, 1 mM EDTA, 0.1% BSA), radioactivity of the filter was measured using a liquid scintillation counter.
# rat SENR [4] = assay: cAMP synthesis suppression in rat SENR-expression CHO cells; assay type: cell-based; conditions: forskolin
# Description: A method for the cAMP synthesis suppressing activity of the bovine SENR ligand (SEQ ID NO:21) synthesized in EXAMPLE 14 on rat SENR-expression CHO cells is shown below. The CHO/SENR cells were inoculated on a 24-well plate in 5 × 10^4 cells/well followed by cultivation for 48 hours. The cells were then washed with Hanks' buffer (pH 7.4) containing 0.2 mM 3-isobutyl-methylxanthine, 0.05% BSA and 20 mM HEPES (hereinafter Hanks' buffer (pH 7.4) containing 0.2 mM 3-isobutyl-methylxanthine, 0.05% BSA and 20 mM HEPES is referred to as a reaction buffer). Thereafter, 0.5 ml of the reaction buffer was added to the system, which was kept in the medium for 30 minutes. The reaction buffer was removed and 0.25 ml of a fresh reaction buffer was added to the cells. Then, 0.25 ml of the reaction buffer containing various amounts of bovine SENR ligand and 2 µM forskolin was added to the cells followed by reacting at 37°C for 24 minutes. By adding 100 µl of 20% perchloric acid, the reaction was terminated. The reaction mixture was then allowed to stand on ice for an hour to extract intracellular CAMP. The amount of cAMP in the extract was measured using cAMP EIA kit (Amersham Pharmacia Biotech).
substance,measurement,setting,value
bovine SENR ligand (peptide),cAMP synthesis suppressing activity (forskolin-stimulated; concentration at which an obvious reduction was seen),[1],0.3 nM
human SENR ligand (human urotensin II) (peptide),cAMP synthesis suppressing activity (forskolin-stimulated; concentration at which an obvious reduction was seen),human SENR (human),0.3 nM
"GPPSECFWKYCV (cysteine pairing not given here) [Bovine SENR ligand, Cys 6th and 11th form intramolecular disulfide bond]",Average blood pressure decreased,[2],35.7 ± 7.0 mmHg
same,amount of [^35S]-guanosine 5'-(γ-thio)triphosphate bound to the membrane fraction,rat SENR [3],dose-dependently increased
same,amount of intracellular cAMP,rat SENR [4]; increasing peptide concentration,decreased dose dependently
same,amount of intracellular cAMP,"rat SENR [4]; peptide 0.3 nM, 37°C 24 minutes",obviously reduced
